{
  "source": "paper PMC5104425",
  "about": "“A Novel Selective Inhibitor of Delta-5 Desaturase Lowers Insulin Resistance and Reduces Body Weight in Diet-Induced Obese C57BL/6J Mice” (PLoS ONE, 2016)",
  "key": {"human D5D": {"target": "T1, human D5D (Homo sapiens, UniProt O60427)", "T1 construct": "endogenous in cells; host or cells: HepG2", "T1 sequence (O60427 whole entry)": "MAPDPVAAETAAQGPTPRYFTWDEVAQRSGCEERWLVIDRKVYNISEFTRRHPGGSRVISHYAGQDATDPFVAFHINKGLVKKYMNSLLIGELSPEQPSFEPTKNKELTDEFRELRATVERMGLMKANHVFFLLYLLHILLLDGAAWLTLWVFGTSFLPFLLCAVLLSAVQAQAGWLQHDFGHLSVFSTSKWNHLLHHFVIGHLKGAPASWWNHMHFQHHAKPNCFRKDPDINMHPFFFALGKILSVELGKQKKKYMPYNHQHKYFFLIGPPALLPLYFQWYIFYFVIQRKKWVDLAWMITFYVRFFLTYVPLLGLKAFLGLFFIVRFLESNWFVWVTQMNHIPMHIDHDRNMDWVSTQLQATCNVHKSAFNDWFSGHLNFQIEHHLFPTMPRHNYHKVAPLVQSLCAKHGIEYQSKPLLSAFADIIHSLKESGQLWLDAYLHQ", "assay": "In vitro cell-based assay for desaturase activity (HepG2), D5D", "experimental": "HepG2 cells were seeded in 96-well cell culture plates at 100 000 cells/well and incubated overnight in DMEM supplemented with 10% fetal bovine serum, 100 U/mL penicillin, and 100 μg/mL streptomycin in 5% CO2 at 37°C. The cells were washed twice with 200 μL of PBS and incubated with the test compounds in DMEM with 0.1% fatty acid free BSA for 30 min. Then, 0.1 μCi/well of [^14C]-labeled DGLA, linoleic acid, and stearic acid (ARC, St. Louis, MO) were added for each desaturase assay. After incubation for 3 h at 37°C, the cells were washed 3 times with 200 μL of PBS to remove [^14C]-labeled substrates in the medium and 0.63 N of NaOH was added to saponify fatty acids. Radioactive substrates and products were extracted, separated, and analyzed using the method as described above."}, "rat D5D": {"target": "T2, rat D5D (Rattus norvegicus, UniProt Q920R3)", "T2 construct": "using hepatic microsomes prepared from SD rats; from tissue; host or cells: liver microsomes of SD rats (CLEA, Japan)", "T2 sequence (Q920R3 whole entry)": "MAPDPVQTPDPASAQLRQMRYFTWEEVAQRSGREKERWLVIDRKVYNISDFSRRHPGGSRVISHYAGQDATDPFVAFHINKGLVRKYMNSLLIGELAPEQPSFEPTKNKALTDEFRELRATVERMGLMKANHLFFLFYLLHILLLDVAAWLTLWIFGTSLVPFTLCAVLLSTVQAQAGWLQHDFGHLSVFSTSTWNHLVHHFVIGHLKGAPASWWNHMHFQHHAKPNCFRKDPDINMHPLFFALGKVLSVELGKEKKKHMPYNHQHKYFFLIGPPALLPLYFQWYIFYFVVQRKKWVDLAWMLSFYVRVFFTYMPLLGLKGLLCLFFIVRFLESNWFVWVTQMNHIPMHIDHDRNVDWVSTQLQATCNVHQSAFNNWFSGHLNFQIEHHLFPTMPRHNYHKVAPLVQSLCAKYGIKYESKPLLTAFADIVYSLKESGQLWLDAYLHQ", "assay": "In vitro enzyme assay for desaturase activity (hepatic microsomes), D5D", "assay_type": "biochemical", "experimental": "(§1) Therefore, we also confirmed that compound-326 has no effect on D9D activity. Inhibitory activity of compound-326 on rat D5D, D6D, and D9D was evaluated using hepatic microsomes prepared from SD rats (CLEA, Japan) as described previously. Assays were performed in a total volume of 30 μL in 96-well plates in a buffer containing 100 mM NaHPO4, 150 mM KCl, 10 mM NaF, 1.5 mM glutathione, 3 mM MgCl2, 1 mM NADH, 3 mM ATP, 0.3 mM CoA-SH, and 0.1% fatty acid free bovine serum albumin (BSA, Sigma, St. Louis, MO); and 0.1 μCi/well of [^14C] DGLA or [^14C] linoleic acids (ARC, St. Louis, MO) were used as substrates for measuring D5D and D6D activities, respectively. After pre-incubation of the test compound with rat liver microsomes (final 1.0 mg/mL) for 5 min, the reaction was started by the addition of NADH, ATP, and the substrates, and the reaction mixture was incubated for another 120 min at room temperature. For D9D assay, [^14C] stearoyl-CoA (PerkinElmer, Waltham, MA) was used in the absence of NADH, ATP, and CoA-SH, and D9D enzyme reaction was performed for 30 min. The reactions were then terminated by the addition of 0.63 N NaOH. […] 2.3 (Fujifilm) and IC50 values were determined using the conversion ratio from the radioactive substrates (20:3n6, 18:2n6 and 18:0) to the products (20:4n6, 18:3n6 and 18:1n9)."}, "fat tissues of DIO mice": {"test_system": "fat tissues of DIO mice", "assay": "RT-qPCR gene expression in epididymal and subcutaneous fat of DIO mice after 6-week treatment", "assay_type": "in vivo, C57BL/6J mice", "conditions": "10 mg/kg, 6 weeks", "experimental": "Mice fed a HFD that has 41% kcal from fat and contains no AA (D12079B; Research diets, Inc.) from 5 weeks of age were divided into 2 groups at the age of 8 weeks (8 animals per group), and were administered 10 mg/kg compound-326 or vehicle for 6 weeks. After the treatment period, mice were sacrificed and epididymal and subcutaneous fats were harvested for mRNA analysis. Nine animals maintained on a standard chow (CE2, CLEA Japan, Osaka) were used as control.\nTotal RNA was extracted and purified using RNeasy Mini Kit (QIAGEN, USA). First-strand cDNA was synthesized using High Capacity cDNA Reverse Transcription Kits (Thermo Fisher, USA). The mRNA levels were quantified by an ABI Prism 7900 TaqMan PCR system (Thermo Fisher, USA) according to the manufacturer’s instruction using TaqMan® Universal PCR Mastermix with the primer-probe sets of TaqMan Gene Expression Assays (Thermo Fisher, USA) for the following genes: Ccl2 (chemokine (C-C motif) ligand 2; Mm99999056_m1), Cd68 (CD68 antigen; Mm03047343_m1), Adgre1 (adhesion G protein-coupled receptor E1; Mm00802529_m1), Tnf (tumor necrosis factor; Mm00443258_m1), Il6 (interleukin 6; Mm99999064), Lep (leptin; Mm00434759_m1), Adipoq (adiponectin; Mm00456425_m1), Fads2 ([…]; Mm00517221_m1), Fads1 ([…]; Mm00507605_m1), Ucp1 (uncoupling protein 1; Mm00494069_m1), Elovl3 (elongation of very long chain fatty acids 3; Mm00468164_m1), Cidea (cell death-inducing DNA fragmentation factor, alpha subunit-like effector A; Mm00432554_m1), Otop1 (otopetrin 1; Mm00554705_m1), and Rplp0 (ribosomal protein, large, P0; forward; 5'-[…]-3', reverse; 5'-[…]-3', probe (VIC-5'→3'-TAMRA); 5'-[…]-3'). The Rplp0 mRNA level was used as a reference and relative transcript levels were calculated with the comparative Ct method (2^-ΔΔCT) (Applied Bio-systems)."}, "rat D6D": {"target": "T3, rat D6D (Rattus norvegicus, UniProt Q9Z122)", "T3 construct": "using hepatic microsomes prepared from SD rats; from tissue; host or cells: liver microsomes of SD rats (CLEA, Japan)", "T3 sequence (Q9Z122 whole entry)": "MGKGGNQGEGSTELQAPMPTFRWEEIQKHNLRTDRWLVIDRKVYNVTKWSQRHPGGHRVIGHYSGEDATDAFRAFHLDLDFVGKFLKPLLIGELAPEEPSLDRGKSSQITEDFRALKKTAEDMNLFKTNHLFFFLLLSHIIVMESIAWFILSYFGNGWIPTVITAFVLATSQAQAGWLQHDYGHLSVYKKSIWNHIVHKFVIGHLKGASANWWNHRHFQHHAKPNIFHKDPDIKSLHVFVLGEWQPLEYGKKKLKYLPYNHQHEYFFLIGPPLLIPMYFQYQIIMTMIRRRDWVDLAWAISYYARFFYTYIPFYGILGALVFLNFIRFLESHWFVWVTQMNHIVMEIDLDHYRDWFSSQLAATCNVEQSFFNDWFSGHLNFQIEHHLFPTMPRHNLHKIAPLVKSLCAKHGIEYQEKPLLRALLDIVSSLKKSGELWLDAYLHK", "assay": "In vitro enzyme assay for desaturase activity (hepatic microsomes), D6D", "assay_type": "biochemical", "experimental": "as §1"}},
  "data": [
    {"smiles": "O=C1Cc2c(nc(OCC(F)(F)C(F)(F)F)n(-c3ccc(OCC(F)(F)F)cc3)c2=O)N1", "note": "[Compound-326, 2-(2,2,3,3,3-Pentafluoropropoxy)-3-[4-(2,2,2-trifluoroethoxy)phenyl]-5,7-dihydro-3H-pyrrolo[2,3-d]pyrimidine-4,6-dione]", "values": [
      {"measurement": "IC50", "setting": "human D5D", "value": 22, "unit": "nM"},
      {"measurement": "IC50", "setting": "rat D5D", "value": 72, "unit": "nM"},
      {"measurement": "D5D mRNA expression in epididymal fat", "setting": "fat tissues of DIO mice", "value": "upregulated"},
      {"measurement": "D6D mRNA expression in epididymal fat", "setting": "fat tissues of DIO mice", "value": "upregulated"},
      {"measurement": "beige fat cell-selective genes, including Ucp1, Cidea, Elovl3, and Otop1, in subcutaneous fat", "setting": "fat tissues of DIO mice", "value": "no induction"},
      {"measurement": "epididymal Lep mRNA", "setting": "fat tissues of DIO mice", "value": "decreased"},
      {"measurement": "epididymal Adipoq mRNA", "setting": "fat tissues of DIO mice; did not reach statistical difference (p = 0.08)", "value": "decreased"},
      {"measurement": "Lep mRNA in subcutaneous fat", "setting": "fat tissues of DIO mice; did not reach statistical significance (p = 0.08)", "value": "decrease"},
      {"measurement": "Adgre1 expression in epididymal fat", "setting": "fat tissues of DIO mice; not significant", "value": "decreased"},
      {"measurement": "Cd68 expression in epididymal fat", "setting": "fat tissues of DIO mice; not significant", "value": "decreased"},
      {"measurement": "Ccl2 expression in epididymal fat", "setting": "fat tissues of DIO mice; significant effect", "value": "decreased"},
      {"measurement": "inhibition of D6D activity", "setting": "rat D6D", "value": "almost no inhibition"},
      {"measurement": "IC50", "setting": "rat D6D; Enzyme (hepatic microsomes)", "value": "> 10", "unit": "µM"}
    ]}
  ]
}
